Source: PubChem BioAssay AID1963967 (Molecular Pharmacology Branch, DTP, NCI, 2024)

Tested on: 855422-203-R-J1-PDC spheroids with HUVEC/MSC, viability
Assay: Anticancer human tumor 855422-203-R-J1-PDC patient-derived bladder carcinoma cell line growth inhibition [PI3K]
Details: for viability, T/C: stronger effect = lower value
From the text: Combinatorial screen of targeted agents with the PI3K inhibitors inavolisib, alpelisib, duvelisib, and copanlisib in multi-cell type tumor spheroids
A high-throughput screen of multi-cell type tumor spheroids was designed to identify active combinations of targeted small molecules and PI3K pathway inhibitors. Complex spheroids include a stromal component modeled by human endothelial cells (HUVEC) and fibroblasts modeled by human mesenchymal stem cells (MSCs). The concentration ranges selected for each drug and investigational agent were based upon clinically achievable concentrations if the clinical Cmax of the agent was known.
Compounds. The drugs and investigational agents: inavolisib (NSC800729), alpelisib (NSC765974), duvelisib (NSC772469), copanlisib (NSC816437), ipatasertib (NSC767898), afuresertib (NSC778305), talazoparib (NSC767125), sapanisertib (NSC764658), selumetinib (NSC741078), tovorafenib (DAY101, NSC766906), vemurafenib (NSC761431), ravoxertinib (NSC781343), sotorasib (NSC818433), MRTX1133 (NSC 836407), abemaciclib (NSC 768073), palbociclib (NSC758247), venetoclax (NSC 766270), SY5609 (NSC837396), enzalutamide (NSC755605), and darolutamide (NSC825331), were obtained from the National Cancer Institute (NCI) Developmental Therapeutics Program Chemical Repository. The FDA-approved anticancer drug set is available from the NCI Developmental Therapeutics Program. […] The stock solutions were prepared in dimethyl sulfoxide (DMSO, Sigma-Aldrich, St. Louis, MO, cat. D2650) at 800-fold the tested concentration and stored at -70 degrees C prior to their use. All drugs and investigational agents were tested over a range starting from a high concentration at or near the clinical Cmax and decreasing in half-log increments. If the clinical Cmax for an agent had not been determined, the highest concentration tested was 10 microM.
Cell Culture. All cells were maintained in an incubator at 37 degrees C and 5% CO2 with 95% humidity. The PDC lines were cultured according to standard operating procedures established by the NCI PDMR (https://pdmr.cancer.gov/sops/default.htm). All PDCs were thawed and cultured in Matrigel-coated flasks prepared with a working solution of 1X Ham's F-12 nutrient mix, without supplementation (Invitrogen, Waltham, MA, cat. 11765054), 100 U/mL penicillin-streptomycin (Invitrogen, cat. 15140122), and 2.5% Matrigel (Corning Inc., Corning, NY, cat. 354248) for the first three passages. The 354836-022-R-J1-PDC, 475296-252-R-J1-PDC, and 997726-040-R-J2-PDC lines were cultured in 6A media, which includes advanced DMEM/F-12 (Thermo Fisher Scientific, cat. 12634028), 10 mM HEPES (Thermo Fisher Scientific, cat. 15630080), 1X GlutaMAX supplement (Thermo Fisher Scientific, cat. 35050061), 0.1 mg/mL primocin (InvivoGen, San Diego, CA, cat. ant-pm-2), 10% defined fetal bovine serum, heat inactivated (HyClone Laboratories Inc., Logan, UT, cat. SH30070.03HI), 50% L-WRN conditioned media (ATCC, cat. CRL-3276), 1.25 mM N-Acetyl-L-cysteine (Sigma-Aldrich, cat. A9165), 10 mM nicotinamide (Sigma-Aldrich, cat. N0636), 1X B-27 supplement (Thermo Fisher Scientific, cat. 17504044), 1X N-2 supplement (Thermo Fisher Scientific, cat. 17502048), and 10 microM Y-27632 dihydrochloride (Tocris Bioscience, Bristol, United Kingdom, cat. 1254). The 624824-186-R-J2-PDC line was cultured in 6C/Colon 1B media, which includes all 6A media components plus 50 ng/mL human EGF recombinant protein (Thermo Fisher Scientific, cat. PHG0311). […]
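Note: agents incubated with spheroids for one week before read-out.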
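Throughout, for viability, T/C: 100% = DMSO vehicle-treated control wells.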

Cn1ncnc1[C@H]1c2n[nH]c(=O)c3cc(F)cc(c23)N[C@@H]1c1ccc(F)cc1 + Cc1nc(NC(=O)N2CCCC2C(N)=O)sc1-c1ccnc(C(C)(C)C(F)(F)F)c1
IC50 (curve of first compound, second compound 0.0316 µM): > 0.1 µM | IC50 (curve of first compound, second compound 0.1 µM): > 0.1 µM | IC50 (curve of first compound, second compound 0.316 µM): > 0.1 µM | IC50 (curve of first compound, second compound 1 µM): > 0.1 µM | IC50 (curve of first compound, second compound 3.16 µM): 0.000903 µM | IC50 (curve of first compound, second compound 10 µM): < 0.000316 µM | viability, T/C (second compound 0.0316 µM, first compound 0.000316 µM): 112% | viability, T/C (second compound 0.0316 µM, first compound 0.001 µM): 92.8% | viability, T/C (second compound 0.0316 µM, first compound 0.00316 µM): 112% | viability, T/C (second compound 0.0316 µM, first compound 0.01 µM): 96.8% | viability, T/C (second compound 0.0316 µM, first compound 0.0316 µM): 105% | viability, T/C (second compound 0.0316 µM, first compound 0.1 µM): 109% | viability, T/C (second compound 0.1 µM, first compound 0.000316 µM): 105% | viability, T/C (second compound 0.1 µM, first compound 0.001 µM): 102% | viability, T/C (second compound 0.1 µM, first compound 0.00316 µM): 102% | viability, T/C (second compound 0.1 µM, first compound 0.01 µM): 101% | viability, T/C (second compound 0.1 µM, first compound 0.0316 µM): 101% | viability, T/C (second compound 0.1 µM, first compound 0.1 µM): 105% | viability, T/C (second compound 0.316 µM, first compound 0.000316 µM): 92.9% | viability, T/C (second compound 0.316 µM, first compound 0.001 µM): 93.8% | viability, T/C (second compound 0.316 µM, first compound 0.00316 µM): 95.8% | viability, T/C (second compound 0.316 µM, first compound 0.01 µM): 94.7% | viability, T/C (second compound 0.316 µM, first compound 0.0316 µM): 98.6% | viability, T/C (second compound 0.316 µM, first compound 0.1 µM): 97.2% | viability, T/C (second compound 1 µM, first compound 0.000316 µM): 72.7% | viability, T/C (second compound 1 µM, first compound 0.001 µM): 74% | viability, T/C (second compound 1 µM, first compound 0.00316 µM): 79.2% | viability, T/C (second compound 1 µM, first compound 0.01 µM): 75.5% | viability, T/C (second compound 1 µM, first compound 0.0316 µM): 79.4% | viability, T/C (second compound 1 µM, first compound 0.1 µM): 68.3% | viability, T/C (second compound 3.16 µM, first compound 0.000316 µM): 51.6% | viability, T/C (second compound 3.16 µM, first compound 0.001 µM): 49.8% | viability, T/C (second compound 3.16 µM, first compound 0.00316 µM): 47.1% | viability, T/C (second compound 3.16 µM, first compound 0.01 µM): 47.7% | viability, T/C (second compound 3.16 µM, first compound 0.0316 µM): 49.1% | viability, T/C (second compound 3.16 µM, first compound 0.1 µM): 44.6% | viability, T/C (second compound 10 µM, first compound 0.000316 µM): 25.6% | viability, T/C (second compound 10 µM, first compound 0.001 µM): 25.1% | viability, T/C (second compound 10 µM, first compound 0.00316 µM): 22.2% | viability, T/C (second compound 10 µM, first compound 0.01 µM): 27.8% | viability, T/C (second compound 10 µM, first compound 0.0316 µM): 25.1% | viability, T/C (second compound 10 µM, first compound 0.1 µM): 21.3%

CC(Nc1ccc2c(c1)OCCn1cc(N3C(=O)OCC3C(F)F)nc1-2)C(N)=O (centres undefined)
viability, T/C (compound 0.00316 µM): 107% [middle of 8 runs] | viability, T/C (compound 0.01 µM): 104% [middle of 8 runs] | viability, T/C (compound 0.0316 µM): 98.5% [middle of 8 runs] | viability, T/C (compound 0.1 µM): 76.7% [middle of 8 runs] | viability, T/C (compound 0.316 µM): 50.6% [middle of 8 runs] | viability, T/C (compound 1 µM): 35.6% [middle of 8 runs] | IC50 (compound alone, run of 05/08/2023): 300 nM [middle of 8 runs]
